Experimental data from the supplement of paper PMC10307832.

compound: O=C(c1cc(Cc2n[nH]c(=O)c3ccccc23)ccc1F)N1CCN(C(=O)C2CC2)CC1 [Olaparib] + O=C(CCCCCCC(=O)Nc1ccccc1)NO [Vorinostat] (partner 1 µM); experiment: relative viability (nuclei count vs DMSO), 5 days (fraction); higher = more cells survive; conditions: first compound 0.08 µM
Outline: (§1)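 Dosing by pin tool came one day after lung cancer cell lines were seeded in 1536-well plates, using either one drug or a fixed anchor-drug dose plus five library-drug doses (not always all listed) in √10 steps. After 5 days, nuclei were counted on 4× images. Relative viability is treated-well nuclei count divided by vehicle-well nuclei count, and values are medians of duplicate plates.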

Cell Line	relative viability
HCC-44	1.12
HCC-78	0.443
HCC-366	0.352
HCC-827	0.818
HOP-62	0.757
LC-2-ad	0.749
LCLC-97TM1	1.08
LCLC-103H	0.936
LK-2	0.391
LOU-NH91	1.17
LU99A	0.463
LXF-289	0.81
NCI-H23	0.957
NCI-H322M	1.01
NCI-H358	0.697
NCI-H441	0.808
NCI-H460	0.778
NCI-H520	0.822

Cell Line	relative viability
NCI-H522	1.04
NCI-H647	0.585
NCI-H650	0.431
NCI-H661	0.885
NCI-H838	0.747
NCI-H1355	0.683
NCI-H1395	0.775
NCI-H1437	0.945
NCI-H1648	0.392
NCI-H1650	0.531
NCI-H1651	0.493
NCI-H1666	1.06
NCI-H1734	0.868
NCI-H1755	0.748
NCI-H1915	0.495
NCI-H1944	0.534
NCI-H1975	0.739
NCI-H1993	0.962

same assay, conditions: first compound 0.253 µM

Cell Line	relative viability
HCC-44	1.06
HCC-78	0.429
HCC-366	0.273
HCC-827	0.723
HOP-62	0.575
LC-2-ad	0.604
LCLC-97TM1	0.63
LCLC-103H	0.762
LK-2	0.341
LOU-NH91	0.904
LU99A	0.397
LXF-289	0.731
NCI-H23	0.542
NCI-H322M	0.854
NCI-H358	0.613
NCI-H441	0.696
NCI-H460	0.58
NCI-H520	0.684

Cell Line	relative viability
NCI-H522	0.812
NCI-H647	0.504
NCI-H650	0.37
NCI-H661	0.715
NCI-H838	0.646
NCI-H1355	0.645
NCI-H1395	0.501
NCI-H1437	0.746
NCI-H1648	0.477
NCI-H1650	0.522
NCI-H1651	0.515
NCI-H1666	0.957
NCI-H1734	0.74
NCI-H1755	0.588
NCI-H1915	0.438
NCI-H1944	0.423
NCI-H1975	0.649
NCI-H1993	0.869

same assay, conditions: first compound 2.53 µM

Cell Line	relative viability
HCC-44	1.22
HCC-78	0.377
HCC-366	0.191
HCC-827	0.893
HOP-62	0.675
LC-2-ad	0.66
LCLC-97TM1	0.615
LCLC-103H	0.801
LK-2	0.345
LOU-NH91	0.939
LU99A	0.353
LXF-289	0.807
NCI-H23	0.434
NCI-H322M	0.942
NCI-H358	0.634
NCI-H441	0.673
NCI-H460	0.378
NCI-H520	0.554

Cell Line	relative viability
NCI-H522	0.797
NCI-H647	0.6
NCI-H650	0.377
NCI-H661	0.692
NCI-H838	0.709
NCI-H1355	0.638
NCI-H1395	0.516
NCI-H1437	0.695
NCI-H1650	0.671
NCI-H1651	0.493
NCI-H1666	0.981
NCI-H1734	0.715
NCI-H1755	0.704
NCI-H1915	0.373
NCI-H1944	0.399
NCI-H1975	0.717
NCI-H1993	0.82

same assay, conditions: first compound 8 µM

Cell Line	relative viability
HCC-44	1.16
HCC-78	0.557
HCC-366	0.101
HCC-827	0.766
HOP-62	0.379
LC-2-ad	0.495
LCLC-97TM1	0.599
LCLC-103H	0.678
LK-2	0.268
LOU-NH91	0.983
LU99A	0.23
LXF-289	0.722
NCI-H23	0.256
NCI-H322M	0.831
NCI-H358	0.551
NCI-H441	0.607
NCI-H460	0.0953
NCI-H520	0.341

Cell Line	relative viability
NCI-H522	0.758
NCI-H647	0.271
NCI-H650	0.238
NCI-H661	0.551
NCI-H838	0.65
NCI-H1355	0.641
NCI-H1395	0.419
NCI-H1437	0.639
NCI-H1648	0.37
NCI-H1650	0.476
NCI-H1651	0.365
NCI-H1666	0.836
NCI-H1734	0.572
NCI-H1755	0.637
NCI-H1915	0.281
NCI-H1944	0.367
NCI-H1975	0.624
NCI-H1993	0.88

compound: C[C@@H](Oc1cc(-c2cnn(C3CCNCC3)c2)cnc1N)c1c(Cl)ccc(F)c1Cl [Crizotinib] + CC(=O)c1c(C)c2cnc(Nc3ccc(N4CCNCC4)cn3)nc2n(C2CCCC2)c1=O [Palbociclib] (partner 0.5 µM); experiment: as above; conditions: first compound 0.01 µM
Outline: as §1

Cell Line	relative viability
HCC-44	0.939
HCC-78	0.431
HCC-366	0.381
HCC-827	0.455
HOP-62	0.444
LC-2-ad	0.525
LCLC-97TM1	0.233
LCLC-103H	0.469
LK-2	0.65
LOU-NH91	0.583
LU99A	0.411
LXF-289	0.583
NCI-H23	0.343
